EC50 data for 28 compounds are collected here from patent US11098010B2 (priority 2017, dated 2021).

This experiment relates to HBV rcDNA in HepDE19 cells. Briefly: HepDE19 assay with bDNA quantitation of HBV rcDNA. It is filed as cell-based, hepatitis B virus (HBV). How it is done: HepDE19 Assay with bDNA Quantitation of HBV rcDNA:
HepDE19 cell culture system is a HepG2 (human hepatocarcinoma) derived cell line that supports HBV DNA replication and cccDNA formation in a tetracycline (Tet)-regulated manner and produces HBV rcDNA and a detectable reporter molecule dependent on the production and maintenance of cccDNA (Guo, et al., 2007, J. Virol. 81:12472-12484).
HepDE19 (50,000 cells/well) were plated in 96-well collagen-coated tissue-culture treated microtiter plates in DMEM/F12 medium supplemented with 10% fetal bovine serum, 1% penicillin-streptomycin and 1 μg/mL tetracycline and incubated in a humidified incubator at 37° C. and 5% CO2 overnight. Next day, the cells were switched to fresh medium without tetracycline and incubated for 4 hours at 37° C. and 5% CO2. The cells were treated with fresh Tet-free medium with compounds at concentrations starting at 25 μM and a serial, ½ log, 8-point, titration series in duplicate. The final DMSO concentration in the assay was 0.5%. The plates were incubated for 7 days in a humidified incubator at 37° C. and 5% CO2. Following a 7 day-incubation, the level of rcDNA present in the inhibitor-treated wells was measured using a Quantigene 2.0 bDNA assay kit (Affymetrix, Santa Clara, Calif.) with HBV specific custom probe set and manufacturers instructions. Concurrently, the effect of compounds on cell viability was assessed using replicate plates, plated at a density of 5,000 cells/well and incubated for 4 days, to determine the ATP content as a measure of cell viability using the cell-titer glo reagent (CTG; Promega Corporation, Madison, Wis.) as per manufacturer's instructions. The plates were read using a Victor luminescence plate reader (PerkinElmer Model 1420 Multilabel counter) and the relative luminescence units (RLU) data generated from each well was calculated as % inhibition of the untreated control wells and analyzed using XL-Fit module in Microsoft Excel to determine EC50 and EC90 (bDNA) and CC50 (CTG) values using a 4-parameter curve fitting algorithm.
Representative compounds of the invention were tested for their abilities to inhibit formation of relaxed circular DNA (rcDNA) in a HepDE19 assay, as described elsewhere herein.

Setting [1] is: HepDE19 cells, inhibition of rcDNA formation, 7 day incubation, top concentration 25 μM, read-out: DE-19 bDNA EC50.
Setting [2] is: Hepatitis B virus, HepDE19, 168 h, HepDE19 cells, inhibition of rcDNA formation, 7 day incubation, top concentration 25 μM, read-out: DE-19 bDNA EC50.
Setting [3] is: read-out: DE-19 bDNA EC50, HepDE19 cells, inhibition of rcDNA formation, 7 day incubation, top concentration 25 μM.
[4] abbreviates: Hepatitis B virus, HepDE19, 168 h, read-out: DE-19 bDNA EC50 (μM), HepDE19 cells, inhibition of rcDNA formation, 7 day incubation, top concentration 25 μM.

Where two headings read alike, the source gives them in different places. A value given as a limit tells only on which side of the number the result lay.

For `CN1C(=O)NC2(CCc3c(C(=O)Nc4ccc(F)c(Cl)c4)ccc(F)c32)C1=O` (single isomer, unassigned) [Compound 262, N-(3-chloro-4-fluoro-phenyl)-7′-fluoro-1-methyl-2,5-dioxo-spiro [imidazolidine-4,1′-indane]-4′-carboxamide], the EC50 under setting [1] was determined as 14 µM.
With `O=C(NC1CCc2c(C(=O)Nc3ccc(F)c(Cl)c3)cncc21)OCc1ccccn1` (single isomer, unassigned) [Compound 271, O-Pyridin-2-ylmethyl, N-(4-((3-chloro-4-fluorophenyl)carbamoyl)-6,7-dihydro-5H-cyclopenta[c]pyridin-7-yl)carbamate], the EC50 under setting [2] stood at 5.7 µM.
As to `COC(=O)N[C@H]1CCc2c(C(=O)Nc3ccc(F)c(F)c3)cccc21` [Compound 1, O-methyl, N—(S)-(4-((3,4-difluorophenyl)carbamoyl)-2,3-dihydro-1H-inden-1-yl) carbamate], the EC50 under setting [2] stood at 0.64 µM.
Same read-out and setting: as for `CNC(=O)N[C@H]1CCc2c(C(=O)Nc3ccc(F)c(F)c3)cccc21` [Compound 2, (S)—N-(3,4-Difluorophenyl)-1-(3-methylureido)-2,3-dihydro-1H-indene-4-carboxamide], the figure is 1.4 µM.
Consider `O=C(N[C@H]1CCc2c(C(=O)Nc3ccc(F)c(F)c3)cccc21)OCc1ccccn1` [Compound 3, O-Pyridin-2-ylmethyl, N—(S)-(4-((3,4-difluorophenyl)carbamoyl)-2,3-dihydro-1H-inden-1-yl) carbamate], for which the EC50 under setting [2] was 0.5 µM.
On to `COC(=O)NC1COc2c(C(=O)Nc3ccc(F)c(F)c3)cccc21` (stereo not shown) [Compound 4, O-Methyl, N-(7-((3,4-difluorophenyl)carbamoyl)-2,3-dihydrobenzofuran-3-yl) carbamate], for which the EC50 under setting [3] came out at 5.3 µM.
The same measure, in the same setting: with `COC(=O)NC1COc2c(C(=O)Nc3ccc(F)c(F)c3)cccc21` (stereo not shown) [Compound 5, O-Methyl, N-(7-((3,4-difluorophenyl)carbamoyl)-2,3-dihydrobenzofuran-3-yl) carbamate] the figure was 14 µM; with `COC(=O)NC1COc2c(C(=O)Nc3ccc(F)c(F)c3)cccc21` (stereo not shown) [Compound 6, O-Methyl, N-(7-((3,4-difluorophenyl)carbamoyl)-2,3-dihydrobenzofuran-3-yl) carbamate], 1.3 µM.
As for `O=C1CC[C@H](COC(=O)N[C@H]2CCc3c(C(=O)Nc4ccc(F)c(Cl)c4)ccc(F)c32)N1` [Compound 9, O—((R)-5-Oxopyrrolidin-2-yl)methyl, N—((S)-4-((3-chloro-4-fluorophenyl)carbamoyl)-7-fluoro-2,3-dihydro-1H-inden-1-yl) carbamate], under setting [4], the EC50 came out at 0.58 µM.
As to `CC(C)(C)OC(=O)N[C@H]1CCc2c(C(=O)Nc3ccc(F)c(Cl)c3)ccc(F)c21` [Compound 10, O-tert-Butyl, N—(S)-(4-((3-chloro-4-fluorophenyl)carbamoyl)-7-fluoro-2,3-dihydro-1H-inden-1-yl) carbamate], the EC50 under setting [2] came to 0.8 µM.
As for `COC(=O)N[C@H]1CCc2c(C(=O)Nc3ccc(F)c(C)c3)ccc(F)c21` [Compound 11, O-Methyl, N—(S)-(7-fluoro-4-((4-fluoro-3-methylphenyl)carbamoyl)-2,3-dihydro-1H-inden-1-yl) carbamate], under setting [4], the EC50 amounted to 0.21 µM.
Consider `CNC(=O)N[C@H]1CCc2c(C(=O)Nc3ccc(F)c(C)c3)ccc(F)c21` [Compound 12, (S)-7-Fluoro-N-(4-fluoro-3-methylphenyl)-1-(3-methylureido)-2,3-dihydro-1H-indene-4-carboxamide], for which the EC50 under setting [4] came out at 0.38 µM.
Consider `N[C@H]1CCc2c(C(=O)Nc3ccc(F)c(Cl)c3)ccc(F)c21` [Compound 13, (S)-1-Amino-N-(3-chloro-4-fluorophenyl)-7-fluoro-2,3-dihydro-1H-indene-4-carboxamide], for which, under setting [2], the EC50 is > 25 µM.
Turning to `O=C(N[C@H]1CCc2c(C(=O)Nc3ccc(F)c(Cl)c3)ccc(F)c21)OCCN1CCCC1=O` [Compound 14, O-2-(2-Oxopyrrolidin-1-yl)ethyl, N—(S)-(4-((3-chloro-4-fluorophenyl)carbamoyl)-7-fluoro-2,3-dihydro-1H-inden-1-yl) carbamate], the EC50 under setting [4] was 0.45 µM.
On the same count and under the same terms, as for `O=C(N[C@H]1CCc2c(C(=O)Nc3ccc(F)c(Cl)c3)cccc21)OCc1ccccn1` [Compound 17], the figure is 0.17 µM; as for `O=C1CC[C@@H](COC(=O)N[C@H]2CCc3c(C(=O)Nc4ccc(F)c(Cl)c4)ccc(F)c32)N1` [Compound 18, O—((S)-5-Oxopyrrolidin-2-yl)methyl, N—((S)-4-((3-chloro-4-fluorophenyl)carbamoyl)-7-fluoro-2,3-dihydro-1H-inden-1-yl) carbamate], 0.34 µM.
In the case of `COC(=O)N[C@H]1CCc2c(C(=O)Nc3ccc(F)c(Cl)c3)ccc(F)c21` [Compound 19, O-Methyl, N—(S)-(4-((3-chloro-4-fluorophenyl)carbamoyl)-7-fluoro-2,3-dihydro-1H-inden-1-yl) carbamate], under setting [2], the EC50 is 0.17 µM.
In the case of `CNC(=O)N[C@H]1CCc2c(C(=O)Nc3ccc(F)c(Cl)c3)ccc(F)c21` [Compound 20, (S)—N-(3-Chloro-4-fluorophenyl)-7-fluoro-1-(3-methylureido)-2,3-dihydro-1H-indene-4-carboxamide], the EC50 under setting [4] worked out at 0.32 µM.
The same measure, in the same setting: as for `O=C1CC[C@H](COC(=O)N[C@H]2CCc3c(C(=O)Nc4ccc(F)c(Cl)c4)cccc32)N1` [Compound 21, O—((R)-5-Oxopyrrolidin-2-yl)methyl, N—((S)-4-((3-chloro-4-fluorophenyl)carbamoyl)-2,3-dihydro-1H-inden-1-yl) carbamate], the figure is 0.58 µM.
On the same count and under the same terms, with `O=C1CC[C@@H](COC(=O)N[C@H]2CCc3c(C(=O)Nc4ccc(F)c(Cl)c4)cccc32)N1` [Compound 22, O—((S)-5-Oxopyrrolidin-2-yl)methyl, N—((S)-4-((3-chloro-4-fluorophenyl)carbamoyl)-2,3-dihydro-1H-inden-1-yl) carbamate] the figure was 0.44 µM.
Consider `Cc1cc(NC(=O)c2cccc3c2CC[C@@H]3NC(=O)OCc2ccccn2)ccc1F` [Compound 23, O-Pyridin-2-ylmethyl, N—(S)-(4-((4-fluoro-3-methylphenyl)carbamoyl)-2,3-dihydro-1H-inden-1-yl) carbamate], for which, under setting [2], the EC50 stood at 0.45 µM.
`Cc1cc(NC(=O)c2cccc3c2CC[C@@H]3NC(=O)OC[C@H]2CCC(=O)N2)ccc1F` [Compound 24, O—((R)-5-Oxopyrrolidin-2-yl)methyl, N—((S)-4-((4-fluoro-3-methylphenyl)carbamoyl)-2,3-dihydro-1H-inden-1-yl) carbamate]: the EC50 under setting [4] was 1.5 µM.
As for `Cc1cc(NC(=O)c2cccc3c2CC[C@@H]3NC(=O)OC[C@@H]2CCC(=O)N2)ccc1F` [Compound 25, O—((S)-5-Oxopyrrolidin-2-yl)methyl, N—((S)-4-((4-fluoro-3-methylphenyl)carbamoyl)-2,3-dihydro-1H-inden-1-yl) carbamate], the EC50 under setting [4] came out at 1.1 µM.
Regarding `O=C(N[C@H]1CCc2c(C(=O)Nc3ccc(F)c(Cl)c3)ccc(F)c21)OCC(=O)N1CCCC1` [Compound 26, O-2-Oxo-2-(pyrrolidin-1-yl)ethyl, N—(S)-(4-((3-chloro-4-fluorophenyl)carbamoyl)-7-fluoro-2,3-dihydro-1H-inden-1-yl) carbamate], the EC50 under setting [4] is 0.44 µM.
In the case of `O=C(NC1CSc2c(C(=O)Nc3ccc(F)c(F)c3)cccc21)OCc1ccccn1` (stereo not shown) [Compound 27, O-pyridin-2-ylmethyl, N-(7-((3,4-difluorophenyl)carbamoyl)-2,3-dihydrobenzo[b]thiophen-3-yl) carbamate], the EC50 under setting [1] was 1.4 µM.
For the compound `O=C(NC1CSc2c(C(=O)Nc3ccc(F)c(Cl)c3)cccc21)OCc1ccccn1` (stereo not shown) [Compound 28, O-pyridin-2-ylmethyl, N-(7-((3-chloro-4-fluorophenyl)carbamoyl)-2,3-dihydrobenzo[b]thiophen-3-yl) carbamate], the EC50 under setting [1] is 0.76 µM.
On the same count and under the same terms, as for `COC(=O)NC1CSc2c(C(=O)Nc3ccc(F)c(Cl)c3)cccc21` (stereo not shown) [Compound 29, O-methyl, N-(7-((3-chloro-4-fluorophenyl)carbamoyl)-2,3-dihydrobenzo[b]thiophen-3-yl) carbamate], the figure is 1.6 µM.
Take `O=C(N[C@H]1CCc2c(C(=O)Nc3ccc(F)c(Cl)c3)ccc(F)c21)OCc1ccccn1` [Compound 32, O-Pyridin-2-ylmethyl, N—(S)-(4-((3-chloro-4-fluorophenyl)carbamoyl)-7-fluoro-2,3-dihydro-1H-inden-1-yl) carbamate]: the EC50 under setting [2] is 0.11 µM.
